Data from patent publication US20230107642A1 (Erasca, Inc., priority 2020, published 2023).

Target: T1, K-Ras G12C (Homo sapiens, UniProt P01116, G12C)
T1 construct: This protein contained 188 amino acids in total, including an N-terminal 6-Histidine tag; made in house; host or cells: E. coli BL21
Test: CAF assay (% CAF; method in Example 7, not in this part)
Type: binding
Conditions: 10 uM compound, 1 h incubation

Row | % CAF @ 10 uM, 1h [%] | SMILES
1 | 54.3 | C=CC(=O)N1CCN(c2nc(=O)n3c4c(c(-c5ccc(F)c6[nH]ncc56)c(Cl)cc24)SCC3)[C@@H](C)C1 [Example 419, 7-((S)-4-acryloyl-2-methylpiperazin-1-yl)-9-chloro-10-(7-fluoro-1H-indazol-4-yl)-2,3-dihydro-5H-[1,4]thiazino[2,3,4-ij]quinazolin-5-one]
2 | 95 | C=CC(=O)N1[C@H](C)CN(c2nc(=O)n3c4c(c(-c5ccc(F)cc5F)c(Cl)cc24)SC[C@@H](OC)C3)C[C@@H]1C [Example 505, (3S)-8-((3S,5R)-4-acryloyl-3,5-dimethylpiperazin-1-yl)-10-chloro-11-(2,4-difluorophenyl)-3-methoxy-3,4-dihydro-2H,6H-[1,4]thiazepino[2,3,4-ij]quinazolin-6-one]
3 | 96 | C=CC(=O)N1CCN(c2nc(=O)n3c4c(c(-c5ccc(F)cc5F)c(C(F)(F)F)cc24)SC[C@@H](OC)C3)CC1 [Example 489, (3S)-8-(4-acryloylpiperazin-1-yl)-11-(2,4-difluorophenyl)-3-methoxy-10-(trifluoromethyl)-3,4-dihydro-2H,6H-[1,4]thiazepino[2,3,4-ij]quinazolin-6-one]
4 | 90 | C=CC(=O)N1CCN(c2nc(=O)n3c4c(c(-c5ccc(F)cc5F)c(C(F)(F)F)cc24)SC[C@@H](O)C3)[C@@H](C)C1 [Example 431, (3S)-8-((S)-4-acryloyl-2-methylpiperazin-1-yl)-11-(2,4-difluorophenyl)-3-hydroxy-10-(trifluoromethyl)-3,4-dihydro-2H,6H-[1,4]thiazepino[2,3,4-ij]quinazolin-6-one]

The next lines start with the compound.

Row | SMILES | % CAF @ 10 uM, 1h [%]
5 | C=CC(=O)N1C2CN(c3nc(=O)n4c5c(c(-c6ccc(F)cc6F)c(C(F)(F)F)cc35)SC[C@@H]4COC)CC1CC(F)(F)C2 [Example 523, (3S)-7-(9-acryloyl-7,7-difluoro-3,9-diazabicyclo[3.3.1]nonan-3-yl)-10-(2,4-difluorophenyl)-3-(methoxymethyl)-9-(trifluoromethyl)-2H-[1,4]thiazino[2,3,4-ij]quinazolin-5(3H)-one] | 68.9
6 | C=CC(=O)N1CCN(c2nc(=O)n3c4c(c(-c5ccc(F)cc5F)c(Cl)cc24)SC[C@@H]3CN2CCC3(CC2)COC3)[C@@H](C)C1 [Example 472, (3S)-3-(2-oxa-7-azaspiro[3.5]nonan-7-ylmethyl)-7-((S)-4-acryloyl-2-methylpiperazin-1-yl)-9-chloro-10-(2,4-difluorophenyl)-2H-[1,4]thiazino[2,3,4-ij]quinazolin-5(3H)-one] | 72.3
7 | O=C1CC2CN(c3nc(=O)n4c5c(c(-c6ccc(F)cc6F)c(C(F)(F)F)cc35)SCC4)CC(C1)N2C(=O)/C=C/C(F)F [Example 439, (E)-7-(9-(4,4-difluorobut-2-enoyl)-7-oxo-3,9-diazabicyclo[3.3.1]nonan-3-yl)-10-(2,4-difluorophenyl)-9-(trifluoromethyl)-2,3-dihydro-5H-[1,4]thiazino[2,3,4-ij]quinazolin-5-one] | 97
8 | C=CC(=O)N1C[C@H](C)N(c2nc(=O)n3c4c(c(-c5cccc6cnn(C)c56)c(Cl)cc24)SC[C@@H]3CN2CCN(CC(F)F)CC2)C[C@H]1C (atropisomer, axis not shown) [Example 570, (3S,10S)-7-((2S,5R)-4-acryloyl-2,5-dimethylpiperazin-1-yl)-9-chloro-3-((4-(2,2-difluoroethyl)piperazin-1-yl)methyl)-10-(1-methyl-1H-indazol-7-yl)-2,3-dihydro-5H-[1,4]thiazino[2,3,4-ij]quinazolin-5-one] | 0
9 | C=CC(=O)N1CCN(c2nc(=O)n3c4c(c(-c5c(F)cc(F)cc5F)c(C(F)(F)F)cc24)SCCC3)[C@@H](C)C1 [Example 455, (S)-8-(4-acryloyl-2-methylpiperazin-1-yl)-10-(trifluoromethyl)-11-(2,4,6-trifluorophenyl)-3,4-dihydro-2H,6H-[1,4]thiazepino[2,3,4-ij]quinazolin-6-one] | 21
10 | C=CC(=O)N1C[C@H](C)N(c2nc(=O)n3c4c(c(-c5ccc(F)cc5F)c(Cl)cc24)SC[C@@H]3COCCOC)C[C@H]1C [Example 501, (3S)-7-((2S,5R)-4-acryloyl-2,5-dimethylpiperazin-1-yl)-9-chloro-10-(2,4-difluorophenyl)-3-((2-methoxyethoxy)methyl)-2H-[1,4]thiazino[2,3,4-ij]quinazolin-5(3H)-one] | 66.8
11 | C=CC(=O)N1CCN(c2nc(=O)n3c4c(c(-c5cc(F)c(F)cc5F)c(C(F)(F)F)cc24)SC[C@H]3COCOC)[C@@H](C)C1 [Example 471, (3R)-7-((S)-4-acryloyl-2-methylpiperazin-1-yl)-3-((methoxymethoxy)methyl)-9-(trifluoromethyl)-10-(2,4,5-trifluorophenyl)-2H-[1,4]thiazino[2,3,4-ij]quinazolin-5(3H)-one] | 23.9
12 | C=CC(=O)N1CCN(c2nc(=O)n3c4c(c(-c5ccc(F)cc5F)c(C(F)(F)F)cc24)SC[C@@H]3CC2CCOCC2)[C@@H](C)C1 [Example 437, (3S)-7-((S)-4-acryloyl-2-methylpiperazin-1-yl)-10-(2,4-difluorophenyl)-3-((tetrahydro-2H-pyran-4-yl)methyl)-9-(trifluoromethyl)-2H-[1,4]thiazino[2,3,4-ij]quinazolin-5(3H)-one] | 95.7

Same assay, conditions: 10 uM, 1 h; Table 3

Row | % CAF @ 10 uM, 1h [%] | SMILES
13 | 44.6 | C=CC(=O)N1CCN(c2nc(=O)n3c4c(c(-c5ccc(F)cc5F)c(Cl)cc24)SCC3CN2CCOCC2)[C@@H](C)C1 (stereo partly drawn) [Example 147, 7-((S)-4-acryloyl-2-methylpiperazin-1-yl)-9-chloro-10-(2,4-difluorophenyl)-3-(morpholinomethyl)-2,3-dihydro-5H-[1,4]thiazino[2,3,4-ij]quinazolin-5-one]
14 | 55.7 | C=CC(=O)N1CCN(c2nc(=O)n3c4c(c(-c5cc(O)ccc5Cl)c(Cl)cc24)SCC3)[C@@H](C)C1 [Example 153, 7-((S)-4-acryloyl-2-methylpiperazin-1-yl)-9-chloro-10-(2-chloro-5-hydroxyphenyl)-2,3-dihydro-5H-[1,4]thiazino[2,3,4-ij]quinazolin-5-one]
15 | 93.5 | C=CC(=O)N1C[C@H](C)N(c2nc(=O)n3c4c(c(-c5ccc(F)cc5F)c(Cl)cc24)S(=O)(=O)CC3)C[C@H]1C (atropisomer, axis not shown) [Example 177, (S)-7-((2S,5R)-4-acryloyl-2,5-dimethylpiperazin-1-yl)-9-chloro-10-(2,4-difluorophenyl)-2,3-dihydro-5H-[1,4]thiazino[2,3,4-ij]quinazolin-5-one 1,1-dioxide]
16 | 64 | C=CC(=O)N1CCN(c2nc(=O)n3c4c(c(-c5ccc(F)cc5F)c(Cl)cc24)SCC3)[C@H](C)C1 [Example 158, 7-((R)-4-acryloyl-2-methylpiperazin-1-yl)-9-chloro-10-(2,4-difluorophenyl)-2,3-dihydro-5H-[1,4]thiazino[2,3,4-ij]quinazolin-5-one]
17 | 27.4 | C=CC(=O)N1CCN(c2nc(=O)n3c4c(c(-c5ccc(F)cc5F)c(Cl)cc24)SCC3)CC12CCNC2=O (centres unmarked) [Example 116, 7-(6-acryloyl-1-oxo-2,6,9-triazaspiro[4.5]decan-9-yl)-9-chloro-10-(2,4-difluorophenyl)-2,3-dihydro-5H-[1,4]thiazino[2,3,4-ij]quinazolin-5-one]
18 | 93.8 | C=CC(=O)N1C[C@H](C)N(c2nc(=O)n3c4c(c(-c5ccc(F)cc5F)c(Cl)cc24)SCC3)C[C@H]1C [Example 189, 7-((2S,5R)-4-acryloyl-2,5-dimethylpiperazin-1-yl)-9-chloro-10-(2,4-difluorophenyl)-2,3-dihydro-5H-[1,4]thiazino[2,3,4-ij]quinazolin-5-one]
19 | 90.6 | C=CC(=O)N1CCN(c2nc(=O)n3c4c(c(-c5ccc(F)cc5F)c(Cl)cc24)SCC3)C[C@@H]1C [Example 140, 7-((S)-4-acryloyl-3-methylpiperazin-1-yl)-9-chloro-10-(2,4-difluorophenyl)-2,3-dihydro-5H-[1,4]thiazino[2,3,4-ij]quinazolin-5-one]

More lines, now with the values behind:

Row | SMILES | % CAF @ 10 uM, 1h [%]
20 | C=CC(=O)N1CCN(c2nc(=O)n3c4c(c(-c5ccc(F)cc5F)c(Cl)cc24)SC[C@H]3CC2CCN(CC(F)F)CC2)[C@@H](C)C1 [Example 69, (3R)-7-((S)-4-acryloyl-2-methylpiperazin-1-yl)-9-chloro-3-((1-(2,2-difluoroethyl)piperidin-4-yl)methyl)-10-(2,4-difluorophenyl)-2,3-dihydro-5H-[1,4]thiazino[2,3,4-ij]quinazolin-5-one] | 96
21 | C=CC(=O)N1CCN(c2nc(=O)n3c4c(c(-c5cccc6cnccc56)c(Cl)cc24)SCC3)[C@@H](C)C1 [Example 86, 7-((S)-4-acryloyl-2-methylpiperazin-1-yl)-9-chloro-10-(isoquinolin-5-yl)-2,3-dihydro-5H-[1,4]thiazino[2,3,4-ij]quinazolin-5-one] | 76.1
22 | C[C@H]1CN(C(=O)/C=C/C(F)F)CCN1c1nc(=O)n2c3c(c(-c4c(F)cc(F)cc4F)c(Cl)cc13)SCC2 [Example 120, (S,E)-9-chloro-7-(4-(4,4-difluorobut-2-enoyl)-2-methylpiperazin-1-yl)-10-(2,4,6-trifluorophenyl)-2,3-dihydro-5H-[1,4]thiazino[2,3,4-ij]quinazolin-5-one] | 95.9

Same assay, conditions: 10 μM, 1 h; Table 4

Row | SMILES | % CAF @ 10 μM, 1 h [%]
23 | C=CC(=O)N1CCN(c2nc(=O)n3c4c(c(-c5ccc(F)cc5F)c(C(F)(F)F)cc24)SC[C@@H]3CC2CCN(CC)CC2)[C@@H](C)C1 [Example 353, (3S)-7-((S)-4-acryloyl-2-methylpiperazin-1-yl)-10-(2,4-difluorophenyl)-3-((1-ethylpiperidin-4-yl)methyl)-9-(trifluoromethyl)-2H-[1,4]thiazino[2,3,4-ij]quinazolin-5(3H)-one] | 97
